From US11084790B2, “Insoluble complex or solvate thereof, pharmaceutical composition and use thereof” (Fruithy Holdings Limited, priority 2017, dated 2021)

Assay: Test on the solubility in a simulated body fluid
Type: physicochemical
Method: Test on the Solubility in a Simulated Body Fluid
The concentration of the drug dissolved in the PBS buffered solution was determined with an HPLC-a method.

[1] = 0.01 M PBS pH 7.4, 37° C., 5 min
[2] = 0.01 M PBS pH 7.4, 37° C., 15 min
[3] = 0.01 M PBS pH 7.4, 37° C., 30 min
[4] = 0.01 M PBS pH 7.4, 37° C., 24 h

CCCCN1CCCCC1C(=O)Nc1c(C)cccc1C.CCCCN1CCCCC1C(=O)Nc1c(C)cccc1C.O=C(O)c1cc2ccccc2c(Cc2c(O)c(C(=O)O)cc3ccccc23)c1O [Preparation Example 30, bis(bupivacaine) pamoate]
Compound concentration: Bupivacaine [1]: 142.3 µM | Compound concentration: Pamoic acid [1]: 75.7 µM | Compound concentration: Bupivacaine [2]: 218.8 µM | Compound concentration: Pamoic acid [2]: 111.6 µM | Compound concentration: Bupivacaine [3]: 233.7 µM | Compound concentration: Pamoic acid [3]: 128.5 µM | Compound concentration: Bupivacaine (0.01 M PBS pH 7.4, 37° C., 1 h): 280.5 µM | Compound concentration: Pamoic acid (0.01 M PBS pH 7.4, 37° C., 1 h): 135.6 µM | Compound concentration: Bupivacaine (0.01 M PBS pH 7.4, 37° C., 2 h): 277.3 µM | Compound concentration: Pamoic acid (0.01 M PBS pH 7.4, 37° C., 2 h): 130.8 µM | Compound concentration: Bupivacaine (0.01 M PBS pH 7.4, 37° C., 6 h): 287.2 µM | Compound concentration: Pamoic acid (0.01 M PBS pH 7.4, 37° C., 6 h): 137.9 µM | Compound concentration: Bupivacaine [4]: 286.9 µM | Compound concentration: Pamoic acid [4]: 140.2 µM | stability of the suspension (ratio between acid radical and basic group) (simulated body fluid): stable | solubility (simulated body fluid, 0.01 M PBS pH 7.4, 37° C.): about 0.3 mM
